Measured values as given in ChEMBL document CHEMBL5678814, “Novel Mps1 Kinase Inhibitors with Potent Antitumor Activity” (Mol Cancer Ther, 2016).

What was measured:
[1] = target: Phosphatidylinositol 5-phosphate 4-kinase type-2 gamma (Homo sapiens, UniProt Q8TBX8); assay: Binding affinity to PIP5K2C (unknown origin) assessed as dissociation constant
[2] = test system: MIA PaCa-2; assay: Antiproliferative activity against human MIA PaCa-2 cells assessed as cell growth inhibition incubated for 96 hrs by crystal violet staining; settings: MIA PaCa-2, 96 h
[3] = test system: SK-MEL3; assay: Antiproliferative activity against human SK-MEL3 cells assessed as cell growth inhibition incubated for 96 hrs by crystal violet staining; settings: SK-MEL3, 96 h
[4] = Cmax in female NMRI mouse plasma at 1 mg/kg, po measured after 24 hrs by LC/-MS/MS analysis
[5] = test system: NCI-H2228; assay: Antiproliferative activity against human NCI-H2228 cells assessed as cell growth inhibition incubated for 96 hrs by crystal violet staining; settings: NCI-H2228, 96 h
[6] = test system: NCI-H2009; assay: Antiproliferative activity against human NCI-H2009 cells assessed as cell growth inhibition incubated for 96 hrs by crystal violet staining; settings: NCI-H2009, 96 h
[7] = test system: NCI-H292; assay: Antiproliferative activity against human NCI-H292 cells assessed as cell growth inhibition incubated for 96 hrs by crystal violet staining; settings: NCI-H292, 96 h
[8] = test system: DU-145; assay: Antiproliferative activity against human DU-145 cells assessed as cell growth inhibition incubated for 96 hrs by MTS assay; type: functional, cell-based; settings: DU-145, 96 h

Phosphatidylinositol 5-phosphate 4-kinase type-2 gamma, sequence (Q8TBX8 whole entry): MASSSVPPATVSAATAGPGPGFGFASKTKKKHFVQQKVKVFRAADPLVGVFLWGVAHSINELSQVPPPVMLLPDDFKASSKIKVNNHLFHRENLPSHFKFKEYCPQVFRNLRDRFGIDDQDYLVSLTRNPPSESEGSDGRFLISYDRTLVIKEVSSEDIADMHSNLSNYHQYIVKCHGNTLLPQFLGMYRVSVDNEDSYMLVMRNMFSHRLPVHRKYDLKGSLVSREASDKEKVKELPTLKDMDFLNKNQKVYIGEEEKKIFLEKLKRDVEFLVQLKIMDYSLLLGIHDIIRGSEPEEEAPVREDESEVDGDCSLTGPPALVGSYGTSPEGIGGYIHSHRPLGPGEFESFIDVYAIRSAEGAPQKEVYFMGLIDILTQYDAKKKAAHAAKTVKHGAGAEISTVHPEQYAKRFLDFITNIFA

COc1cc(S(C)(=O)=O)ccc1Nc1nc2ccc(-c3ccc(NC(=O)[C@H](C)c4ccc(F)cc4)cc3)cn2n1 [BAY-1161909]
Kd [1]: 280 nM | IC50 [2]: 1000 nM | IC50 [3]: 53 nM | Cmax [4]: 120 ng/mL | IC50 [5]: > 3000 nM | IC50 [6]: 560 nM | IC50 [7]: 190 nM | IC50 [8]: 160 nM
